These compounds were tested against T1, GLP-1R (Homo sapiens, UniProt P43220) (assay: EC20 GLP-1(9-36) PAM cAMP assay: dose response of compound in the presence of fixed concentration of GLP-1(9-36)). Conditions: GLP-1R CRE-bla CHO-K1 cells, compound dose response in presence of fixed concentration of GLP-1(9-36).
T1 construct: host or cells: CRE-bla CHO-K1
Assay type: cell-based
Description: EC20 GLP-1(9-36) PAM cAMP Assay: Dose Response of Compound in the Presence of Fixed Concentration of GLP-1 (9-36).
GLP-1R CRE-bla CHO-K1 cells cultured in growth medium (DMEM-High glucose, 10% dialyzed FBS, 0.1 mM NEAA, 25 mM Hepes, 100 U/mL penicillin/100 μg/mL streptomycin, 5 μg/mL Blasticidin, 600 μg/mL Hygromycin) were tryspsinized and plated in suspension into 384 well white flat bottom plates at 5000 cells/well in 12 μL assay buffer (Hanks Balanced Salt solution, 10 mM Hepes, 0.1% BSA, pH 7.4). A 5× compound dose response curve (12-point) was generated in assay buffer containing 1.5 mM IBMX, 12.5% DMSO. GLP-1(9-36) was diluted to 4.2 μM in assay buffer containing 1.5 mM IBMX and 12.5% DMSO. The 5× compound dose response was added (3 μL), followed by 0.5 μL of GLP-1(9-36) and cells were incubated for 30 min at 37° C. Direct detection of cAMP was carried out using DiscoveRx HitHunter cAMP kit according to manufacturer's instructions and luminescence was read using a SpectraMax M5 plate reader. Luminescence was converted to total cAMP using a cAMP standard curve and data was analyzed by non-linear regression to determine the EC50 and Emax.
GLP-1(7-36): […]-NH2. GLP-1(9-36): […]-NH2. GLP-1(7-36) was purchased from GenScript. GLP-1(9-36) was purchased from Biopeptide Co., Inc.

T1 sequence (P43220 24-463): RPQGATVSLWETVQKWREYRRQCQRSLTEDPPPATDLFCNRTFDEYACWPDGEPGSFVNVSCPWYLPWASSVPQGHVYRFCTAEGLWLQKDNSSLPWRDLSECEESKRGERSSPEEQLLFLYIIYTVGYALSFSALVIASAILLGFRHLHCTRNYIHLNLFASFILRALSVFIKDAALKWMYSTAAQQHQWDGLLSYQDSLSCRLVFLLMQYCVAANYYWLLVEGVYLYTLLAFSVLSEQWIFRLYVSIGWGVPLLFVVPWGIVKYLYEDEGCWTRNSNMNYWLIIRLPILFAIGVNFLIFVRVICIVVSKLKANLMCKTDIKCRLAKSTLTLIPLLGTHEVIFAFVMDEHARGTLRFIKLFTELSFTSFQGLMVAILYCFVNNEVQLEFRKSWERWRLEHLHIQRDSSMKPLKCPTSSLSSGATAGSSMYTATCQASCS
T1 sequence (P01275 100-127 partner limits assumed): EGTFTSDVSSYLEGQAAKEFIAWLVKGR

Compound | EC50 [nM]
CCCCCCCOc1ccc(-c2cnc(-c3ccc(C[C@H](NC(=O)c4ccc(C(C)(C)C)s4)C(=O)NCC(=O)O)cc3)cn2)cc1 [Compound 284] | 800 to 2500
CC(C)(C)c1ccc(C(=O)N[C@@H](Cc2ccc(-c3ncc(-c4ccccc4)cn3)cc2)C(=O)O)cc1 [Compound 196] | 2500 to 5000
CSCC[C@@H](NC(=O)[C@H](Cc1ccc(-c2ncc(-c3ccc(C(C)(C)C)cc3)cn2)cc1)NC(=O)c1ccc(C(C)(C)C)s1)C(=O)O [Compound 368] | < 800
CC(C)Cc1ccc(-c2cnc(-c3ccc(C[C@H](NC(=O)c4ccc(C(C)(C)C)s4)C(=O)O)cc3)nc2)cc1 [Compound 243] | 800 to 2500
COc1ccc(-c2cnc(-c3ccc(C[C@H](NC(=O)c4ccc(C(C)(C)C)cc4)C(=O)O)cc3)nc2)cc1OC [Compound 214] | 2500 to 5000
CC(C)(C)c1ccc(C(=O)N[C@@H](Cc2ccc(-c3noc(-c4ccc(N)cc4)n3)cc2)C(=O)O)cc1 [Compound 62] | 2500 to 5000
CC(C)(C)c1ccc(C(=O)N[C@@H](Cc2ccc(-c3noc(-c4ccc(C(N)=O)cc4)n3)cc2)C(=O)O)cc1 [Compound 61] | 2500 to 5000
CC(C)(C)c1ccc(C(=O)N[C@@H](Cc2ccc(-c3ncc(-c4cccc(C(C)(C)C)c4)cn3)cc2)C(=O)O)cc1 [Compound 204] | 2500 to 5000
CC(C)(C)c1ccc(-c2cnc(-c3ccc(C[C@H](NC(=O)c4ccc(C(F)(F)F)cc4)C(=O)O)cc3)nc2)cc1 [Compound 174] | < 800
CNc1ccc(-c2cnc(-c3ccc(C[C@H](NC(=O)c4ccc(C(C)(C)C)cc4)C(=O)O)cc3)nc2)cc1 [Compound 233] | 2500 to 5000
CCCCCCCOc1ccc(N2CCC(Nc3ccc(C[C@H](NC(=O)c4ccc(C(C)(C)C)cc4)C(=O)O)cc3)CC2)cc1 [Compound 263] | 800 to 2500
CC(C)Nc1ccc(-c2cnc(-c3ccc(C[C@H](NC(=O)c4ccc(C(C)(C)C)cc4)C(=O)O)cc3)nc2)cc1 [Compound 235] | 2500 to 5000
CC(C)(C)c1ccc(C(=O)N[C@@H](Cc2ccc(-c3noc(-c4ccc(N5CCCCC5)cc4)n3)cc2)C(=O)NCC(=O)O)cc1 [Compound 68] | 2500 to 5000
CCCCCCCOc1ccc(-c2cnc(-c3ccc(C[C@H](NC(=O)c4ccc(C(C)(C)C)s4)C(=O)N4CCC(C(=O)O)C4)cc3)nc2)cc1 (stereo partly drawn) [Compound 344] | < 800
CC(C)(C)c1ccc(C(=O)N[C@@H](Cc2ccc(-c3ncc(-c4ccc(OC5CC5)cc4)cn3)cc2)C(=O)O)s1 [Compound 244] | 2500 to 5000
COc1cc(C(F)(F)F)ccc1-c1ccc(-c2nc(-c3ccc(C[C@H](NC(=O)c4ccc(C(C)(C)C)cc4)C(=O)O)cc3)no2)cc1 [Compound 27] | 800 to 2500
CCCCCCCOc1ccc(-c2cnc(-c3ccc(C[C@H](NC(=O)c4ccc(C(C)(C)C)s4)C(=O)N4CCC[C@H]4C(=O)O)cc3)nc2)cc1 [Compound 328] | 800 to 2500
CC(C)(C)c1ccc(-c2cnc(-c3ccc(C[C@H](NC(=O)c4ccc(C(C)(C)C)s4)C(=O)NC(CN4CCCC4)C(=O)O)cc3)nc2)cc1 (stereo partly drawn) [Compound 365] | 2500 to 5000
CC(C)(C)c1ccc(-c2cnc(-c3ccc(C[C@H](NC(=O)c4cc(C(C)(C)C)n[nH]4)C(=O)O)cc3)nc2)cc1 [Compound 168] | 800 to 2500
CCCCCCCOc1ccc(-c2ccc(-c3ccc(C[C@H](NC(=O)c4ccc(C(C)(C)C)s4)C(=O)NCC(=O)O)cc3)nn2)cc1 [Compound 283] | 5000 to 10000
CCCCCCCOc1ccc(-c2nc(-c3ccc(C(NC(=O)c4ccc(C(C)(C)C)cc4)C(=O)O)cc3)no2)cc1 (stereo not drawn) [Compound 71] | 2500 to 5000
CC(C)n1cc(C(=O)N[C@@H](Cc2ccc(-c3ncc(-c4ccc(C(C)(C)C)cc4)cn3)cc2)C(=O)O)cn1 [Compound 167] | 800 to 2500

More lines, now with the values ahead:

EC50 [nM] | Compound
800 to 2500 | CCCCCCCOc1ccc(-c2cnc(-c3ccc(C[C@@H](NC(=O)c4ccc(C(C)(C)C)s4)C(=O)N[C@@H](C)C(=O)O)cc3)nc2)cc1 [Compound 374]
800 to 2500 | CCCCCCCOc1ccc(-c2cnc(-c3ccc(C[C@H](NC(=O)c4ccc(C(C)(C)C)cc4)C(=O)O)cc3)cc2C)cc1 [Compound 294]
< 800 | CCCCCCCOc1ccc(-c2cnc(-c3ccc(C[C@H](NC(=O)c4ccc(C(C)(C)C)s4)C(=O)N[C@H](CCC(N)=O)C(=O)O)cc3)nc2)cc1 [Compound 341]
800 to 2500 | CCCCCCCOc1ccc(-c2cnc(-c3ccc(C[C@H](NC(=O)c4coc(C(C)C)n4)C(=O)O)cc3)nc2)cc1 [Compound 132]
< 800 | CCCCCCCCCOc1ccc(-c2cnc(-c3ccc(C[C@H](NC(=O)c4ccc(C(C)(C)C)s4)C(=O)O)cc3)nc2)cc1 [Compound 260]
800 to 2500 | CCCCCCCOc1ccc(-c2cnc(-c3ccc(C[C@H](NC(=O)c4ccc(CO)cc4)C(=O)O)cc3)nc2)cc1 [Compound 126]
< 800 | CCCCCCCOc1ccc(-c2cnc(-c3ccc(C[C@H](NC(=O)c4ccc(C(C)(C)C)s4)C(=O)O)cc3)nc2)cc1 [Compound 192, (S)-2-(5-(tert-butyl)thiophene-2-carboxamido)-3-(4-(5-(4-(heptyloxy)phenyl)-pyrimidin-2-yl)phenyl)propanoic acid]
2500 to 5000 | CCCCCCCOc1ccc(-c2cnc(-c3ccc(C[C@H](NC(=O)c4csc(C(C)C)c4)C(=O)O)cc3)nc2)cc1 [Compound 146]
800 to 2500 | CCCCCCCOc1ccc(-c2cnc(-c3ccc(C[C@H](NC(=O)c4ccc(C(C)C)cc4)C(=O)O)cc3)nc2)cc1 [Compound 94, (S)-3-(4-(5-(4-(heptyloxy)phenyl)pyrimidin-2-yl)phenyl)-2-(4-isopropylbenzamido)propanoic acid]
< 800 | CCCCCCCOc1ccc(-c2cnc(-c3ccc(C[C@H](NC(=O)c4ccc(C(C)(C)C)s4)C(=O)NC(CC(=O)O)c4ccc(O)cc4)cc3)nc2)cc1 (stereo partly drawn) [Compound 350]
< 800 | CCCCCCCOc1ccc(-c2cnc(-c3ccc(C[C@H](NC(=O)c4ccc(C(C)C)cc4)C(=O)N[C@H](Cc4cnc[nH]4)C(=O)O)cc3)nc2)cc1 [Compound 316]
800 to 2500 | CCCCCCCOc1ccc(-c2cnc(-c3ccc(C[C@H](NS(=O)(=O)c4ccc(Cl)cc4)C(=O)O)cc3)nc2)cc1 [Compound 185]
800 to 2500 | CCCCCCCOc1ccc(-c2nc(-c3ccc(C[C@H](NC(=O)c4ccc(C(C)(C)C)cc4)C(=O)O)cc3)co2)cc1 [Compound 78]
800 to 2500 | CCCCCCCOc1ccc(-c2cnc(-c3ccc(C[C@H](NC(=O)c4cc5c(s4)CCC(C)C5)C(=O)O)cc3)nc2)cc1 (stereo partly drawn) [Compound 151]
800 to 2500 | CCCCCCCOc1ccc(-c2cnc(-c3ccc(C[C@H](NC(=O)c4ccc(OS(C)(=O)=O)cc4)C(=O)O)cc3)nc2)cc1 [Compound 183]
800 to 2500 | CCCCCCCOc1ccc(-c2cnc(-c3ccc(C[C@H](NC(=O)c4ccc(C(C)(C)C)s4)C(=O)N[C@@H](CCC(=O)O)C(=O)O)cc3)nc2)cc1 [Compound 330]
800 to 2500 | CC(C)Oc1ccc(C(=O)N[C@@H](Cc2ccc(-c3ncc(-c4ccc(C(C)(C)C)cc4)cn3)cc2)C(=O)O)cc1 [Compound 162]
800 to 2500 | CCCCCCCOc1ccc(-c2ncc(-c3ccc(C[C@H](NC(=O)c4ccc(C(C)(C)C)cc4)C(=O)O)cc3)cn2)cc1 [Compound 271]
800 to 2500 | CCCCCCCOc1ccc(-c2cnc(-c3ccc(C[C@H](NC(=O)c4cc(C(C)C)on4)C(=O)O)cc3)nc2)cc1 [Compound 135]
800 to 2500 | CCCCCCCOc1ccc(-c2ncc(-c3ccc(CC(NC(=O)c4ccc(C(C)(C)C)cc4)C(=O)O)cc3)s2)cc1 (stereo not drawn) [Compound 82]

From patent publication US8778923B2, “GLP-1 receptor modulators” (Receptos, Inc., priority 2011, dated 2014)
